{
  "source": "patent US12233060B2",
  "about": "“Inhibitors of Ataxia-Telangiectasia Mutated and Rad3-related protein kinase (ATR) for use in methods of treating cancer” (THE INSTITUTE OF CANCER RESEARCH: ROYAL CANCER HOSPITAL, priority 2016, dated 2025)",
  "key": {"HCT116 cells": {"tested_on": "HCT116 cells", "experiment": "DNA fibre analysis, replication fork speed in HCT116 cells with SS18-SSX1", "type": "cell-based, human", "conditions": "0.1 μM for two hours", "description": "(§1) FIG. 10. ATR inhibitors elicit replication fork stress in SS tumour cells. […] Error bars represent SEM from triplicate experiments. p values were derived from Student's t tests. B. Western blot illustrating PARP1 cleavage in SYO1 cells exposed to VX970 for 24 hours. C. Western blot illustrating H2AX phosphorylation (γH2AX) in SYO1 cells exposed to VX970 (0.1 μM). D. Confocal microspcopy images illustrating H2AX phosphorylation in SYO1 cells exposed to VX970 (0.1 μM, 24 hours). E. Bar chart depicting data from (D). Error bars represent SEM from 100 images. p values were derived from Student's t tests. F. Replication fork speeds in SYO1 cells exposed to 0.1 μM VX970 for two hours. p value was derived from a Student's t test. G. Replication fork speeds in HCT116 cells exposed to 0.1 μM VX970 for two hours in the presence and absence of ectopic expression of a SS18-SSX1 fusion protein. p values were derived from Student's t tests. Expression of SS18-SSX1 or exposure to VX970 reduced fork speed. Combined SS18-SSX1 expression and VX970 exposure enhanced the reduction in fork speed. H and I. FACS plots from SYO1 cells exposed to VX970.\n(§2) ATRi induced cytotoxicity in tumour cells derived from carcinomas is often associated with an increase in replication fork stress."}, "SYO1 cells": {"tested_on": "SYO1 cells", "experiment": "DNA fibre analysis, replication fork speed in SYO1 cells", "type": "cell-based, human", "conditions": "0.1 μM for two hours; p<0.0001", "description": "as §1, §2"}, "[1]": {"tested_on": "Arid1a+/+ and Arid1a−/− mouse embryonic stem (ES) cells", "experiment": "Clonogenic survival of mouse Arid1a isogenic ES cells", "type": "cell-based", "conditions": "p<0.001 ANOVA", "description": "FIG. 2. In vitro ARID1A/ATR synthetic lethality. A. Chemical structure of VX-970. B. Western blot of ARID1A in human ARID1A isogenic HCT116 cells. C. Image of colonies in 6 well-plate clonogenic assay. HCT116 ARID1A isogenic (^+/+ and ^−/−) cell lines were exposed to increasing concentrations of the VE-821 (0, 0.1, 1 uM) and VX-970 (0, 0.01, 0.05 uM) for 14 days. D and E. Dose response clonogenic survival curve of HCT116 ARID1A isogenic (^+/+ and ^−/−) cell lines exposed to increasing concentrations of the VE-821 and VX-970 for 14 days. Error bars represent SD from triplicate experiments, ANOVA p-value of <0.0001. F. Area under curve (AUC) box whisker comparison plot for human tumor cell lines exposed to VX-970 for five days. ARID1A wild type tumor cell lines (n=15) were compared to ARID1A mutant cell lines (n=9). Student's t-test p=0.00594. G. Dose response clonogenic survival curve of mouse Arid1a isogenic ES cell lines. Experiment was performed as per (C). Error bars represent SD from triplicate experiments, ANOVA p value of <0.0001. H. Western blot of Arid1a protein expression in mouse ES Arid1a isogenic cells. […]\nShort-term survival assays were performed in 384-well plates. […] Drug was added 24 h after seeding and cells were continuously exposed to the drug for five days, after which cell viability was estimated using CellTitre-Glo luminescence (Promega). […] Colonies were counted manually. […]"}},
  "data": [
    {"smiles": "CNCc1ccc(-c2cc(-c3nc(-c4ccc(S(=O)(=O)C(C)C)cc4)cnc3N)on2)cc1", "note": "[VX-970, 5-[4-(Isopropylsulfonyl)phenyl]-3-(3-{4-[(methylamino)methyl]phenyl}-1,2-oxazol-5-yl)-2-pyrazinamine]", "values": [
      {"measurement": "decrease in replication fork speed with SS18-SSX1 expression plus VX970", "setting": "HCT116 cells", "result": "enhanced by the addition of VX970"},
      {"measurement": "replication fork speed", "setting": "SYO1 cells", "result": "significant reduction in replication fork speed"},
      {"measurement": "selective targeting of Arid1a−/− ES cells in clonogenic assays", "setting": "[1]", "result": "selectively targeted Arid1a^−/− ES cells"}
    ]}
  ]
}
